Experimental data: ChEMBL document CHEMBL3797195, “Bacterial lipid membranes as promising targets to fight antimicrobial resistance, molecular foundations and illustration through the renewal of aminoglycoside antibiotics and emergence of amphiphilic aminoglycosides” (2016)
≈ marks a conversion by molar mass, not a printed value.

Experiments:
Format in all cases: functional
[1] = system: Escherichia coli; assay: Antibacterial activity against Escherichia coli ATCC 25922 after 12 to 18 hrs by two fold dilution method
[2] = system: Staphylococcus aureus; assay: Antibacterial activity against Staphylococcus aureus ATCC 25923 after 12 to 18 hrs by two fold dilution method
[3] = system: Pseudomonas aeruginosa; assay: Antibacterial activity against clinical colistin-resistant Pseudomonas aeruginosa by microdilution method
[4] = system: Staphylococcus aureus; assay: Antibacterial activity against methicillin-resistant Staphylococcus aureus after 24 hrs by MTT assay
[5] = system: Escherichia coli; assay: Antibacterial activity against Escherichia coli ATCC 25922 after 24 hrs by MTT assay; conditions: ATCC 25922, 24 h
[6] = system: Klebsiella pneumoniae; assay: Antibacterial activity against Klebsiella pneumoniae after 12 to 18 hrs by MTT assay
[7] = system: Pseudomonas aeruginosa; assay: Antibacterial activity against Pseudomonas aeruginosa after 12 to 18 hrs by MTT assay

Row | Compound | MIC [1] [µg/mL] | MIC [2] [µg/mL] | also measured
1 | CCCCCCOC[C@@H]1O[C@@H](O[C@@H]2[C@@H](O)[C@H](O[C@@H]3O[C@@H](CN)[C@H](O)[C@@H](O)[C@@H]3N)[C@@H](N)C[C@H]2N)[C@@H](O)[C@H](O)[C@H]1O (stereo in doubt) | > 32 | > 32 | –
2 | CCCCCCCCO[C@@H]1[C@@H](O[C@H]2O[C@H](CN)[C@@H](O)[C@H](O)[C@H]2N)[C@H](N)C[C@H](N)[C@H]1O[C@H]1O[C@H](CO)[C@@H](O)[C@H](N)[C@H]1O (stereo in doubt) | > 32 | > 32 | –
3 | NC[C@H]1O[C@H](O[C@H]2[C@H](O)[C@@H](OCCCCc3ccc4ccccc4c3)[C@H](N)C[C@@H]2N)[C@H](N)[C@@H](OCCCCc2ccc3ccccc3c2)[C@@H]1O | – | – | MIC [3]: 2 µg/mL (≈ 2.91 µM)
4 | CCCCCCCO[C@@H]1[C@@H](OCCCCCCC)[C@H](N)C[C@H](N)[C@H]1O[C@H]1O[C@H](CN)[C@@H](OCCCCCCC)C[C@H]1N | – | – | MIC [4]: 1 µg/mL (≈ 1.66 µM); MIC [5]: 4 µg/mL (≈ 6.66 µM); MIC [6]: 4 µg/mL (≈ 6.66 µM); MIC [7]: 4 µg/mL (≈ 6.66 µM)
5 | CCCCCCCCO[C@@H]1[C@@H](O)[C@H](O)[C@H](O[C@H]2[C@H](O)[C@@H](O[C@@H]3O[C@@H](CN)[C@H](O)[C@@H](O)[C@@H]3N)[C@H](N)C[C@@H]2N)O[C@H]1CO (single isomer, unassigned) | > 32 | > 32 | –
6 | NC[C@H]1O[C@H](O[C@H]2[C@H](O)[C@@H](OCCCCCCCCCc3ccc4ccccc4c3)[C@H](N)C[C@@H]2N)[C@H](N)[C@@H](OCCCCCCCCCc2ccc3ccccc3c2)[C@@H]1O | – | – | MIC [3]: 2 µg/mL (≈ 2.42 µM)
7 | CCCCCCCCOC[C@@H]1O[C@@H](O[C@@H]2[C@@H](O)[C@H](O[C@@H]3O[C@@H](CN)[C@H](O)[C@@H](O)[C@@H]3N)[C@@H](N)C[C@H]2N)[C@@H](O)[C@H](O)[C@H]1O (stereo in doubt) | > 32 | > 32 | –
8 | NC[C@H]1O[C@H](O[C@H]2[C@H](O)[C@@H](OCCCc3ccc4ccccc4c3)[C@H](N)C[C@@H]2N)[C@H](N)[C@@H](OCCCc2ccc3ccccc3c2)[C@@H]1O | – | – | MIC [3]: 2 µg/mL (≈ 3.04 µM)
9 | CCCCCCCCO[C@H]1[C@@H](O[C@@H]2[C@@H](O)[C@H](O[C@H]3O[C@H](CN)[C@@H](O)[C@H](O)[C@H]3N)[C@@H](N)C[C@H]2N)O[C@H](CO)[C@@H](O)[C@@H]1O | > 32 | > 32 | –
10 | CCCCCCCCO[C@@H]1[C@@H](O[C@H]2O[C@H](CN)[C@@H](O)[C@H](O)[C@H]2N)[C@H](N)C[C@H](N)[C@H]1O[C@H]1O[C@H](CO)[C@@H](O)[C@H](O)[C@H]1O (stereo in doubt) | > 32 | > 32 | –
11 | CCCCCCCCO[C@@H]1[C@@H](O)[C@@H](O[C@@H]2[C@@H](O)[C@H](O[C@H]3O[C@H](CN)[C@@H](O)[C@H](O)[C@H]3N)[C@@H](N)C[C@H]2N)O[C@H](CO)[C@H]1O | > 32 | > 32 | –
12 | CCCCCCCCO[C@@H]1[C@@H](N)[C@H](O)[C@H](O[C@H]2[C@H](O)[C@@H](O[C@@H]3O[C@@H](CN)[C@H](O)[C@@H](O)[C@@H]3N)[C@H](N)C[C@@H]2N)O[C@H]1CO (single isomer, unassigned) | > 32 | > 32 | –
